Source: US20250387399A1, “TREATMENT OF A SELECTIVE POPULATION OF PATIENTS HAVING DEMENTIA WITH LEWY BODIES” (EIP Pharma, LLC, priority 2021, published 2025)

Key:
Assay type in all cases: in vivo, human
[1] = system: patients with mild-to-moderate DLB; assay: AscenD-LB phase 2 study: treatment effect by baseline plasma ptau181 status (all major endpoints)
Method: Up to half of patients with DLB have tau pathology, or “AD copathology” (van der Lee et al, 2021) and such co-pathology may impact response to cholinesterase inhibitors (Graff-Radford et al, 2012). In patients with DLB, plasma phospho-tau (either ptau217 or ptau181) correlates with tau-PET signal in the temporal cortex and predicts abnormal tau-PET status and CSF β-amyloid status (Hall et al, 2021). Accordingly, plasma ptau181 levels were assessed in plasma samples obtained during the screening phase of AscenD-LB. The results on the association of tau pathology to treatment outcome in AscenD-LB are described below.
(§1) Plasma ptau181 levels were determined by SIMOA pTau181 Assay (Quanterix) at the VU Medical Center, where the in-house defined cut-off for tau pathology was set at 2.2 pg/mL.

[2] = system: patients with mild-to-moderate DLB; assay: AscenD-LB phase 2 study: Timed Up and Go (TUG) test
Method: (§2) With the objective of uniformly achieving a target average plasma drug concentration of 20 nM patients, dosing regimen after randomization to neflamapimod or placebo was based on weight: • Weight<80 kg: 40 mg neflamapimod capsule or matching placebo capsule BID • Weight≥80 kg: 40 mg neflamapimod capsule or matching placebo capsule TID
(§3) As a result, efficacy analyses compared: (1) all neflamapimod (i.e., including 40 mg BID and 40 mg TID) vs. placebo; (2) 40 mg TID (dose group that achieved target concentration) vs. placebo; and (3) 40 mg TID vs. placebo TID.
as §1

[3] = system: patients with mild-to-moderate DLB; assay: AscenD-LB phase 2 study: Attention Composite z-score
Method: as §2, §3, §1

[4] = system: patients with mild-to-moderate DLB; assay: AscenD-LB phase 2 study: Clinical Dementia Rating Scale sum-of-boxes (CDR-SB)
Method: as §2, §3, §1

[5] = system: patients with mild-to-moderate DLB; assay: AscenD-LB phase 2 study: DLB specific Neuropsychological Test Battery (NTB) z-score
Method: as §2, §3, §1

[6] = system: patients with mild-to-moderate DLB; assay: AscenD-LB phase 2 study: International Shopping List Test (ISLT); settings: patients with baseline plasma ptau181 <2.2 pg/mL, 16 weeks
Method: as §2, §3, §1

[7] = AscenD-LB phase 2 study: plasma drug concentration
Method: as §2
Trough plasma drug concentrations 50% lower with 40 mg BID vs. 40 mg TID

[8] = 40 mg TID vs. all placebo, patients with baseline plasma ptau181 <2.2 pg/mL, 16 weeks
[9] = 40 mg TID vs. placebo TID, baseline plasma ptau181 < 2.2 pg/mL
[10] = 40 mg TID vs. placebo TID, patients with baseline plasma ptau181 <2.2 pg/mL, 16 weeks
[11] = 40 mg TID vs. placebo, baseline plasma ptau181 < 2.2 pg/mL
[12] = all neflamapimod (40 mg BID and TID) vs. placebo, baseline plasma ptau181 < 2.2 pg/mL
[13] = overall population, 91-patient, 16-week study, main analysis

**Q.** For `O=c1ncn2nc(Sc3ccc(F)cc3F)ccc2c1-c1c(Cl)cccc1Cl` [neflamapimod, 5-(2,6-dichlorophenyl)-2-(2,4-difluorophenylthio)-6H-pyrimido [1,6-b]pyridazin-6-one], which “treatment effect on NTB z-score, attention z-score, TUG, CDR-SB (descriptive evaluation)” value ([1]; patients below the threshold (2.2 pg/mL) for having tau pathology) is on record?
**A.** Its value is “positive treatment effects”.

**Q.** And the “treatment effect on NTB z-score, attention z-score, TUG, CDR-SB (descriptive evaluation)” value ([1]; patients with baseline plasma ptau181 above the threshold (2.2 pg/mL), i.e. with tau pathology)?
**A.** Its value is “no discernible treatment effect”.

**Q.** What about the “magnitude of treatment effect relative to placebo for the individual endpoints, ptau181 <2.2 pg/mL population compared to overall population” value ([1]; plasma ptau181 <2.2 pg/mL at baseline vs. overall population) of the same molecule?
**A.** The value was 1.5 to 2.0 fold.

**Q.** What about the “TUG, difference vs. placebo (LMMRM)” value [2, 8] of the same molecule?
**A.** Its value is -3.1 s.

**Q.** And the “Timed up and Go, Effect size, improvement in neflamapimod 40 mg TID vs. placebo TID” value [2, 9]?
**A.** The value was 0.70.

**Q.** And the “TUG, difference vs. placebo TID (LMMRM)” value [2, 10]?
**A.** Its value is -3.5 s.

**Q.** What about the “Timed up and Go, Effect size, improvement in neflamapimod 40 mg TID vs. placebo” value [2, 11] of the same molecule?
**A.** The value was 0.74.

**Q.** What about the “Timed up and Go, Effect size, improvement in all neflamapimod vs. placebo” value [2, 12] of the same molecule?
**A.** Its value is 0.40.

**Q.** And the “motor function assessed by TUG test, relative to placebo” value [2, 13]?
**A.** The value was “significant improvement”.

**Q.** What about the “attention composite z-score, difference vs. placebo (LMMRM)” value [3, 8] of the same molecule?
**A.** Its value is 0.42 z-score.

**Q.** What about the “Attention, Effect size, improvement in neflamapimod 40 mg TID vs. placebo TID” value [3, 9] of the same molecule?
**A.** Its value is 0.70.

**Q.** What about the “attention composite z-score, difference vs. placebo TID (LMMRM)” value [3, 10] of the same molecule?
**A.** Its value is 0.46 z-score.

**Q.** What about the “Attention, Effect size, improvement in neflamapimod 40 mg TID vs. placebo” value [3, 11] of the same molecule?
**A.** Its value is 0.78.

**Q.** And the “Attention, Effect size, improvement in all neflamapimod vs. placebo” value [3, 12]?
**A.** The value was 0.29.

**Q.** And the “CDR-SB, difference vs. placebo (LMMRM)” value [4, 8]?
**A.** Its value is −0.60 points.

**Q.** What about the “CDR-SB, Effect size, improvement in neflamapimod 40 mg TID vs. placebo TID” value [4, 9] of the same molecule?
**A.** Its value is 0.98.

**Q.** What about the “CDR-SB, difference vs. placebo TID (LMMRM)” value [4, 10] of the same molecule?
**A.** Its value is −0.93 points.

**Q.** What about the “CDR-SB, Effect size, improvement in neflamapimod 40 mg TID vs. placebo” value [4, 11] of the same molecule?
**A.** The value was 0.70.

**Q.** And the “CDR-SB, Effect size, improvement in all neflamapimod vs. placebo” value [4, 12]?
**A.** Its value is 0.58.

**Q.** What about the “cognition and function assessed by CDR-SB, relative to placebo” value [4, 13] of the same molecule?
**A.** Its value is “significant improvement”.

**Q.** And the “NTB z-score, difference vs. placebo (LMMRM)” value ([5]; 40 mg TID vs. all placebo, patients with baseline plasma ptau181 <2.2 pg/mL, 16 weeks, not significant)?
**A.** The value was 0.21.

**Q.** What about the “NTB, Effect size, improvement in neflamapimod 40 mg TID vs. placebo TID” value [5, 9] of the same molecule?
**A.** The value was 0.61.

**Q.** What about the “NTB z-score, difference vs. placebo TID (LMMRM)” value ([5]; 40 mg TID vs. placebo TID, patients with baseline plasma ptau181 <2.2 pg/mL, 16 weeks, not significant) of the same molecule?
**A.** The value was 0.25.

**Q.** What about the “NTB, Effect size, improvement in neflamapimod 40 mg TID vs. placebo” value [5, 11] of the same molecule?
**A.** The value was 0.56.

**Q.** And the “NTB, Effect size, improvement in all neflamapimod vs. placebo” value [5, 12]?
**A.** The value was 0.15.

**Q.** What about the “cognition assessed by NTB, relative to placebo” value [5, 13] of the same molecule?
**A.** Its value is “significant improvement”.

**Q.** And the “ISLD immediate recall, difference vs. placebo (LMMRM)” value ([6]; 40 mg TID vs. all placebo)?
**A.** The value was 2.1 words.

**Q.** And the “ISLD recognition, difference vs. placebo (LMMRM)” value ([6]; 40 mg TID vs. all placebo)?
**A.** Its value is 1.4 words.

**Q.** What about the “ISLD immediate recall, difference vs. placebo TID (LMMRM)” value ([6]; 40 mg TID vs. placebo TID) of the same molecule?
**A.** Its value is 2.3 words.

**Q.** And the “ISLD recognition, difference vs. placebo TID (LMMRM)” value ([6]; 40 mg TID vs. placebo TID)?
**A.** Its value is 0.9 words.

**Q.** What about the “shortfall from target average plasma drug concentration (20 nM)” value ([7]; 40 mg BID (weight <80 kg)) of the same molecule?
**A.** Its value is 30-40%.

**Q.** What about the “trough plasma drug concentrations, lower with 40 mg BID vs. 40 mg TID” value ([7]; 40 mg BID vs. 40 mg TID) of the same molecule?
**A.** Its value is 50%.

**Q.** And the “attainment of target average plasma drug concentration (20 nM)” value ([7]; 40 mg TID (weight ≥80 kg))?
**A.** The value was “achieved target plasma drug concentration”.
